Test results: US7674807B2, “Heterocycle-substituted n-phenyl-phthalamide derivatives, related compounds and their use as insecticides” (Bayer CropScience AG, priority 2004, dated 2010)

Assays:
[1] = tested on: larva of Cnaphalocrocis medinalis Guenee; test: Test against larva of Cnaphalocrocis medinalis Guenee (sprayed paddy rice foliage); type: in vivo; details: 20 ppm concentration of the active component; second instar larvae; counted after 7 days; 25° C.
Outline: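 Potted rice (Tamanishiki) sprayed with aqueous dilutions of compound at the prescribed concentration; air-dried leaf pieces placed in dishes with five 2nd-instar larvae at 25° C, fresh treated foliage added at days 2 and 4. Mortality counted at day 7, averaged over 2 dishes.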

[2] = tested on: larva of Spodoptera litura; test: Test against larva of Spodoptera litura (leaf dip, sweet potato leaves); type: in vivo; details: 20 ppm concentration of the active component; third instar larvae; counted after 7 days; 25° C.
Outline: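 Sweet potato leaves were dipped in emulsified compound diluted with water, air-dried, and given to 10 third-instar larvae per dish at 25° C, with fresh leaves added on days 2 and 4. Mortality was counted after 7 days and averaged over 2 dishes.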

| SMILES | controlling effect, rate of death [1] [%] | controlling effect, rate of death [2] [%] |
| --- | --- | --- |
| CSCC(C)(C)NC(=O)c1c(I)cccc1C(=O)Nc1ccc(C(C)n2nc(C(F)(F)F)cc2C(F)(F)F)cc1C (centres unmarked) [compound 565] | 100 | 100 |
| Cc1cc(C(C)n2nc(C(F)(F)F)cc2C(F)(F)F)ccc1NC(=O)c1cccc(I)c1C(=O)NC(C)(C)C[S+](C)[O-] (centres unmarked) [compound 566] | 100 | 100 |
| Cc1cc(C(C)n2nc(C(F)(F)F)cc2C(F)(F)F)ccc1NC(=O)c1cccc(I)c1C(=O)NC(C)(C)CS(C)(=O)=O (centres unmarked) [compound 567] | 100 | 100 |
| CSC[C@H](C)NC(=O)c1c(Cl)cccc1C(=O)Nc1ccc(C(C)n2nc(C(F)(F)F)nc2C(F)(F)F)cc1C (some centres unmarked) [compound 568] | 100 | 100 |
| CSC[C@H](C)NC(=O)c1c(I)cccc1C(=O)Nc1ccc(C(C)n2nc(C(F)(F)F)nc2C(F)(F)F)cc1C (some centres unmarked) [compound 571] | 100 | 100 |
| Cc1cc(C(C)n2nc(C(F)(F)F)nc2C(F)(F)F)ccc1NC(=O)c1cccc(I)c1C(=O)N[C@@H](C)CS(C)(=O)=O (some centres unmarked) [compound 573] | 100 | 100 |
| CSC[C@H](C)NC(=O)c1c(Cl)cccc1C(=O)Nc1ccc(C(C)n2nc(C(F)(F)F)nc2C(F)(F)C(F)(F)F)cc1C (some centres unmarked) [compound 574] | 100 | 100 |
| CSC[C@H](C)NC(=O)c1c(Cl)cccc1C(=O)Nc1ccc(C(C)n2nc(C(F)(F)C(F)(F)F)nc2C(F)(F)F)cc1C (some centres unmarked) [compound 578] | 100 | 100 |
| Cc1cc(C(C)n2nc(C(F)(F)C(F)(F)F)nc2C(F)(F)F)ccc1NC(=O)c1cccc(Cl)c1C(=O)N[C@@H](C)CS(C)(=O)=O (some centres unmarked) [compound 580] | 100 | 100 |
| CSC[C@H](C)NC(=O)c1c(Cl)cccc1C(=O)Nc1ccc(Cn2nc(C(F)(F)C(F)(F)F)cc2C(F)(F)C(F)(F)F)cc1C [compound 626] | 100 | 100 |
| CSC[C@H](C)NC(=O)c1c(Cl)cccc1C(=O)Nc1ccc(Cn2cc(C(F)(F)C(F)(F)F)c(C(F)(F)F)n2)cc1C [compound 637] | 100 | 100 |
| Cc1cc(Cn2cc(C(F)(F)C(F)(F)F)c(C(F)(F)F)n2)ccc1NC(=O)c1cccc(Cl)c1C(=O)N[C@@H](C)C[S+](C)[O-] (some centres unmarked) [compound 638] | 100 | 100 |
| Cc1cc(Cn2cc(C(F)(F)C(F)(F)F)c(C(F)(F)F)n2)ccc1NC(=O)c1cccc(Cl)c1C(=O)N[C@@H](C)CS(C)(=O)=O [compound 639] | 100 | 100 |
| CSC[C@H](C)NC(=O)c1c(I)cccc1C(=O)Nc1ccc(Cn2cc(C(F)(F)C(F)(F)F)c(C(F)(F)F)n2)cc1C [compound 640] | 100 | 100 |
| Cc1cc(Cn2cc(C(F)(F)C(F)(F)F)c(C(F)(F)F)n2)ccc1NC(=O)c1cccc(I)c1C(=O)N[C@@H](C)C[S+](C)[O-] (some centres unmarked) [compound 641] | 100 | 100 |
| Cc1cc(Cn2cc(C(F)(F)C(F)(F)F)c(C(F)(F)F)n2)ccc1NC(=O)c1cccc(I)c1C(=O)N[C@@H](C)CS(C)(=O)=O [compound 642] | 100 | 100 |
| CSC[C@H](C)NC(=O)c1c(Cl)cccc1C(=O)Nc1ccc(Cn2cc(C(F)(F)C(F)(F)C(F)(F)F)c(C(F)(F)F)n2)cc1C [compound 643] | 100 | 100 |
| CSC[C@H](C)NC(=O)c1c(I)cccc1C(=O)Nc1ccc(Cn2cc(C(F)(F)C(F)(F)C(F)(F)F)c(C(F)(F)F)n2)cc1C [compound 644] | 100 | 100 |
| CSC[C@H](C)NC(=O)c1c(Cl)cccc1C(=O)Nc1ccc(Cn2cc(C(F)(F)C(F)(F)C(F)(F)C(F)(F)F)c(C(F)(F)F)n2)cc1C [compound 645] | 100 | 100 |
| Cc1cc(Cn2cc(C(F)(F)C(F)(F)C(F)(F)C(F)(F)F)c(C(F)(F)F)n2)ccc1NC(=O)c1cccc(Cl)c1C(=O)N[C@@H](C)C[S+](C)[O-] (some centres unmarked) [compound 646] | 100 | 100 |

| SMILES | controlling effect, rate of death [1] [%] | controlling effect, rate of death [2] [%] |
| --- | --- | --- |
| Cc1cc(Cn2cc(C(F)(F)C(F)(F)C(F)(F)C(F)(F)F)c(C(F)(F)F)n2)ccc1NC(=O)c1cccc(Cl)c1C(=O)N[C@@H](C)CS(C)(=O)=O [compound 647] | 100 | 100 |
| CSC[C@H](C)NC(=O)c1c(I)cccc1C(=O)Nc1ccc(Cn2cc(C(F)(F)C(F)(F)C(F)(F)C(F)(F)F)c(C(F)(F)F)n2)cc1C [compound 648] | 100 | 100 |
| Cc1cc(Cn2cc(C(F)(F)C(F)(F)C(F)(F)C(F)(F)F)c(C(F)(F)F)n2)ccc1NC(=O)c1cccc(I)c1C(=O)N[C@@H](C)C[S+](C)[O-] (some centres unmarked) [compound 649] | 100 | 100 |
| Cc1cc(Cn2cc(C(F)(F)C(F)(F)C(F)(F)C(F)(F)F)c(C(F)(F)F)n2)ccc1NC(=O)c1cccc(I)c1C(=O)N[C@@H](C)CS(C)(=O)=O [compound 650] | 100 | 100 |
| Cc1cc(Cn2cc(C(F)(F)C(F)(F)F)c(C(F)(F)C(F)(F)F)n2)ccc1NC(=O)c1cccc(I)c1C(=O)N[C@@H](C)C[S+](C)[O-] (some centres unmarked) [compound 655] | 100 | 100 |
| Cc1cc(Cn2cc(C(F)(F)C(F)(F)F)c(C(F)(F)C(F)(F)F)n2)ccc1NC(=O)c1cccc(I)c1C(=O)N[C@@H](C)CS(C)(=O)=O [compound 656] | 100 | 100 |
| CSC[C@H](C)NC(=O)c1c(Cl)cccc1C(=O)Nc1ccc(Cn2cc(C(F)(F)C(F)(F)C(F)(F)F)c(C(F)(F)C(F)(F)F)n2)cc1C [compound 657] | 100 | 100 |
| Cc1cc(Cn2cc(C(F)(F)C(F)(F)C(F)(F)F)c(C(F)(F)C(F)(F)F)n2)ccc1NC(=O)c1cccc(Cl)c1C(=O)N[C@@H](C)C[S+](C)[O-] (some centres unmarked) [compound 658] | 100 | 100 |
| Cc1cc(Cn2cc(C(F)(F)C(F)(F)C(F)(F)F)c(C(F)(F)C(F)(F)F)n2)ccc1NC(=O)c1cccc(Cl)c1C(=O)N[C@@H](C)CS(C)(=O)=O [compound 659] | 100 | 100 |
| CSC[C@H](C)NC(=O)c1c(I)cccc1C(=O)Nc1ccc(Cn2cc(C(F)(F)C(F)(F)C(F)(F)F)c(C(F)(F)C(F)(F)F)n2)cc1C [compound 660] | 100 | 100 |
| Cc1cc(Cn2cc(C(F)(F)C(F)(F)C(F)(F)F)c(C(F)(F)C(F)(F)F)n2)ccc1NC(=O)c1cccc(I)c1C(=O)N[C@@H](C)C[S+](C)[O-] (some centres unmarked) [compound 661] | 100 | 100 |
| Cc1cc(Cn2cc(C(F)(F)C(F)(F)C(F)(F)F)c(C(F)(F)C(F)(F)F)n2)ccc1NC(=O)c1cccc(I)c1C(=O)N[C@@H](C)CS(C)(=O)=O [compound 662] | 100 | 100 |
| CSC[C@H](C)NC(=O)c1c(Cl)cccc1C(=O)Nc1ccc(Cn2cc(C(F)(F)C(F)(F)C(F)(F)C(F)(F)F)c(C(F)(F)C(F)(F)F)n2)cc1C [compound 663] | 100 | 100 |
| CSC[C@H](C)NC(=O)c1c(I)cccc1C(=O)Nc1ccc(Cn2cc(C(F)(F)C(F)(F)C(F)(F)C(F)(F)F)c(C(F)(F)C(F)(F)F)n2)cc1C [compound 664] | 100 | 100 |
| CSC[C@H](C)NC(=O)c1c(Cl)cccc1C(=O)Nc1ccc(Cn2cc(C(F)(F)C(F)(F)F)c(C(F)(F)C(F)(F)C(F)(F)F)n2)cc1C [compound 665] | 100 | 100 |
| CSC[C@H](C)NC(=O)c1c(I)cccc1C(=O)Nc1ccc(Cn2cc(C(F)(F)C(F)(F)F)c(C(F)(F)C(F)(F)C(F)(F)F)n2)cc1C [compound 666] | 100 | 100 |
| CSC[C@H](C)NC(=O)c1c(Cl)cccc1C(=O)Nc1ccc(Cn2cc(C(F)(F)C(F)(F)C(F)(F)F)c(C(F)(F)C(F)(F)C(F)(F)F)n2)cc1C [compound 667] | 100 | 100 |
| Cc1cc(Cn2cc(C(F)(F)C(F)(F)C(F)(F)F)c(C(F)(F)C(F)(F)C(F)(F)F)n2)ccc1NC(=O)c1cccc(Cl)c1C(=O)N[C@@H](C)C[S+](C)[O-] (some centres unmarked) [compound 668] | 100 | 100 |
| Cc1cc(Cn2cc(C(F)(F)C(F)(F)C(F)(F)F)c(C(F)(F)C(F)(F)C(F)(F)F)n2)ccc1NC(=O)c1cccc(Cl)c1C(=O)N[C@@H](C)CS(C)(=O)=O [compound 669] | 100 | 100 |
| CSC[C@H](C)NC(=O)c1c(I)cccc1C(=O)Nc1ccc(Cn2cc(C(F)(F)C(F)(F)C(F)(F)F)c(C(F)(F)C(F)(F)C(F)(F)F)n2)cc1C [compound 670] | 100 | 100 |
